Test results as given in patent publication US20110054216A1, “NOVEL PROCESS FOR MAKING (2R)-(3-AMINO-2-FLUOROPROPYL)PHOSPHINIC ACID FORM A” (priority 2007, published 2011).

Assay: isoelectric point of the zwitterion
Type: physicochemical
Conditions: pH at which it may be crystallised
Protocol: (2R)-(3-amino-2-fluoropropyl)phosphinic acid is a zwitterion, that may be crystallised at the isoelectric point, in this case approximately at a pH of 5.3. As the reaction is performed during acidic conditions, the protonated species of (2R)-(3-amino-2-fluoropropyl)phosphinic acid is formed. After completed reaction, the pH is adjusted to 5-6 by addition of a base in order to isolate (2R)-(3-amino-2-fluoropropyl)phosphinic acid crude as the zwitterion. The solution of (2R)-(3-amino-2-fluoropropyl)phosphinic acid works as a buffer solution and the amount of base added to reach the set pH-interval (5-6) is can be varied in the range of from 1.8-2.8 equivalents.

Compound: NC[C@@H](F)C[PH](=O)O [(2R)-(3-amino-2-fluoropropyl)phosphinic acid]
- isoelectric point (pH): ~5.3
